Here are results for 81 molecules from EPA's aquatic toxicity sets.

Each structure is given as a SMILES string.

One series relates to Tetrahymena pyriformis. The series can be described thus: 48 h IGC50 (-log10 mol/L); higher = more toxic.
Consider `CC(C)(O)CCc1ccccc1`, for which the “48 h IGC50 (-log10 mol/L)” value was 2.93. On the same count and under the same terms, the result for `CCOC(=O)CC(=O)OCC` reads 2; that for `Clc1cc(Cl)c(Cl)cc1Cl`, 5.

`CCOC(=O)CCCCCCCCC(=O)OCC`: the “48 h IGC50 (-log10 mol/L)” value was determined as 4.35. Regarding `C=COC(C)=O`, the “48 h IGC50 (-log10 mol/L)” value was found to be 2.14. In the case of `CCCCCOCCCCC`, the “48 h IGC50 (-log10 mol/L)” value was 4.09. The same measure, in the same setting: the result for `OCC(Br)CBr` (configuration not stated) reads 2.51.

On to `O=Cc1ccc(Cl)cc1Cl`, for which the “48 h IGC50 (-log10 mol/L)” value stood at 4.04. Regarding `Brc1ccc(Br)cc1`, the “48 h IGC50 (-log10 mol/L)” value is 3.68.

With `Cc1cccc(Cl)n1`, the “48 h IGC50 (-log10 mol/L)” value was 2.52. `C=CCc1ccc(O)c(OC)c1`: the “48 h IGC50 (-log10 mol/L)” value was determined as 3.42. As to `CC(C)=NO`, the “48 h IGC50 (-log10 mol/L)” value stood at 1.75. Regarding `COC(=O)c1cc(Cl)ccc1Cl`, the “48 h IGC50 (-log10 mol/L)” value is 3.81. `C=CCC#N`: the “48 h IGC50 (-log10 mol/L)” value came out at 1.52. Regarding `O=C1CCCCC1`, the “48 h IGC50 (-log10 mol/L)” value was determined as 1.77.

On to `c1ccccc1`, for which the “48 h IGC50 (-log10 mol/L)” value is 2.88.

The next series relates to Pimephales promelas. In words: 96 h LC50 (-log10 mol/L); higher = more toxic.
Regarding `CC(C)(O)CCc1ccccc1`, the “96 h LC50 (-log10 mol/L)” value amounted to 3.39.

Take `CCOC(=O)CC(=O)OCC`: the “96 h LC50 (-log10 mol/L)” value was determined as 4.02. Still for that read-out and setting: the result for `Clc1cc(Cl)c(Cl)cc1Cl` reads 5.83; that for `CCOC(=O)CCCCCCCCC(=O)OCC`, 4.98; that for `C=COC(C)=O`, 3.57.

In the case of `CCCCCOCCCCC`, the “96 h LC50 (-log10 mol/L)” value was found to be 4.71.

In the case of `OCC(Br)CBr` (configuration not stated), the “96 h LC50 (-log10 mol/L)” value stood at 3.49. In the case of `O=Cc1ccc(Cl)cc1Cl`, the “96 h LC50 (-log10 mol/L)” value was 4.99. Same read-out and setting: the result for `Brc1ccc(Br)cc1` reads 5.28.

Turning to `Cc1cccc(Cl)n1`, the “96 h LC50 (-log10 mol/L)” value amounted to 2.74. On the same count and under the same terms, with `C=CCc1ccc(O)c(OC)c1` the figure was 3.83; with `CC(C)=NO`, 2.12.

Take `COC(=O)c1cc(Cl)ccc1Cl`: the “96 h LC50 (-log10 mol/L)” value turned out to be 4.17. Same read-out and setting: the result for `C=CCC#N` reads 2.57; that for `O=C1CCCCC1`, 2.19.

`c1ccccc1`: the “96 h LC50 (-log10 mol/L)” value worked out at 3.44. Same read-out and setting: the result for `C#CC(C)(O)c1ccccc1` (configuration not stated) reads 3.11; that for `COc1ccc(C(C)=O)c(OC)c1OC`, 3.02. Same read-out and setting: the result for `O=Cc1cccc(C(F)(F)F)c1` reads 5.28; that for `Cc1ncc[nH]1`, 2.46; that for `CCOP(=S)(OCC)SCCSCC`, 4.85. As to `COc1ccc(C=O)c(OC)c1`, the “96 h LC50 (-log10 mol/L)” value is 3.92. Regarding `C=CCCCCCCC=C`, the “96 h LC50 (-log10 mol/L)” value stood at 5.68. Still for that read-out and setting: the result for `CC(O)(c1ccc(Cl)cc1)c1ccc(Cl)cc1` reads 5.25. `CN(C)C(=O)Nc1ccc(Cl)c(Cl)c1`: the “96 h LC50 (-log10 mol/L)” value worked out at 4.21. Take `N#Cc1c(Cl)cccc1Cl`: the “96 h LC50 (-log10 mol/L)” value amounted to 4.42. For `Cc1c([N+](=O)[O-])ccc(N)c1[N+](=O)[O-]`, the “96 h LC50 (-log10 mol/L)” value came out at 4.25.

`CC1(C)CC(=O)CC(=O)C1`: the “96 h LC50 (-log10 mol/L)” value is 1.09. On the same count and under the same terms, with `CCOP(=S)(OCC)Oc1nc(Cl)c(Cl)cc1Cl` the figure was 6.36; with `COP(=O)(O)OC`, 3.85. The same measure, in the same setting: with `C=C(C)C(=O)OCC1CCCO1` (configuration not stated) the figure was 3.69; with `O=C(O)CCCOc1ccc(Cl)cc1Cl`, 4.14.

For `C1COCCO1`, the “96 h LC50 (-log10 mol/L)” value is 0.931. `c1ccc(-c2cccc(-c3ccccc3)n2)cc1`: the “96 h LC50 (-log10 mol/L)” value stood at 6.04. The same measure, in the same setting: with `COc1cc(Cl)c(Cl)cc1O` the figure was 4.63; with `CS(=O)(=O)Oc1ccc(Cl)cc1Cl`, 4.74. With `CCCCCCCCS(=O)C(C)Cc1ccc2c(c1)OCO2` (configuration not stated), the “96 h LC50 (-log10 mol/L)” value was 5.64. Same read-out and setting: the result for `C1C2CC3CC1CC(C2)C3` reads 5.68. As to `BrCCCBr`, the “96 h LC50 (-log10 mol/L)” value was 5.05. With `Cc1ccccc1F`, the “96 h LC50 (-log10 mol/L)” value was found to be 3.75. On the same count and under the same terms, the result for `CCOC(=O)[C@H](C)N(C(=O)c1ccccc1)c1ccc(Cl)c(Cl)c1` reads 5.68.

`CC(O)C#N` (configuration not stated): the “96 h LC50 (-log10 mol/L)” value worked out at 4.9.

For `C=CCC1=C(C)[C@@H](OC(=O)[C@@H]2[C@@H](C=C(C)C)C2(C)C)CC1=O`, the “96 h LC50 (-log10 mol/L)” value is 6.67.

Consider `CCCCC(=O)CCCC`, for which the “96 h LC50 (-log10 mol/L)” value worked out at 3.66.

With `COCCCNCc1cc(OC)c(OC)c(OC)c1`, the “96 h LC50 (-log10 mol/L)” value was found to be 3.3.

Take `OCCN1CCNCC1`: the “96 h LC50 (-log10 mol/L)” value came to 1.31.

For `CC(C)=C1C=C2CC[C@@H]3[C@](C)(CCC[C@@]3(C)C(=O)O)[C@H]2CC1`, the “96 h LC50 (-log10 mol/L)” value stood at 5.31.

Turning to `O=C(O)c1c(Cl)ccc(Cl)c1Cl`, the “96 h LC50 (-log10 mol/L)” value was 4.42. For the molecule `OCC(F)(F)F`, the “96 h LC50 (-log10 mol/L)” value came to 2.92. Still for that read-out and setting: with `Nc1ccc(S(=O)(=O)O)cc1` the figure was 3.24; with `CCSCCSCC`, 3.4; with `CCOC(=O)c1ccccc1O`, 3.92. The same measure, in the same setting: the result for `O[C@@H]1CCCC[C@H]1c1ccccc1` reads 3.6; that for `CN(C)N`, 3.88. Same read-out and setting: with `ClC1=C(Cl)C2(Cl)C3C(Cl)C=CC3C1(Cl)C2(Cl)Cl` (configuration not stated) the figure was 6.75; with `CC(C)(C)CCN`, 2.23. For the molecule `O=S(c1ccccc1)c1ccccc1`, the “96 h LC50 (-log10 mol/L)” value was 3.37. On the same count and under the same terms, with `O[C@H]1C[C@@H]2CC[C@H]1C2` the figure was 2.69; with `Cc1ccc([N+](=O)[O-])c(N)c1[N+](=O)[O-]`, 4.21; with `C1=C[C@H]2CC[C@@H]1C2`, 3.97. For the molecule `CCCCCC(C)=O`, the “96 h LC50 (-log10 mol/L)” value was determined as 2.94. On to `COC(=O)c1ccc(C(=O)OC)c(N)c1`, for which the “96 h LC50 (-log10 mol/L)” value is 4.37. The same measure, in the same setting: with `CC(C)Nc1nc(Cl)nc(NC2CC2)n1` the figure was 4.8; with `CC(C)(O)C(F)(F)C(F)F`, 2.44; with `O=P(c1ccccc1)(c1ccccc1)c1ccccc1`, 3.71. On the same count and under the same terms, with `CC(C)(C)c1ccc(C(N)=O)cc1` the figure was 3.75; with `CCOP(=S)(Oc1ccc([N+](=O)[O-])cc1)c1ccccc1` (configuration not stated), 6.21; with `Oc1ccc(Cl)cc1`, 4.46. On the same count and under the same terms, with `Nc1ccc(F)c(C(F)(F)F)c1` the figure was 3.77. Turning to `O=C(CCl)c1ccc(Cl)cc1`, the “96 h LC50 (-log10 mol/L)” value was 4.21.

With `CCOC(=O)C(C)Oc1ccc(Oc2nc3ccc(Cl)cc3o2)cc1` (configuration not stated), the “96 h LC50 (-log10 mol/L)” value was 4.71.

In the case of `Cc1cc(O)c([N+](=O)[O-])cc1[N+](=O)[O-]`, the “96 h LC50 (-log10 mol/L)” value was found to be 4.79.

Consider `Cc1ccc(Cl)c(Cl)c1`, for which the “96 h LC50 (-log10 mol/L)” value was 4.74.

Turning to `O=C(O)c1c(F)cccc1F`, the “96 h LC50 (-log10 mol/L)” value turned out to be 3.36.

For the molecule `ClCCCCCl`, the “96 h LC50 (-log10 mol/L)” value was 3.39.

With `O=C(O)C(Cl)(Cl)Cl`, the “96 h LC50 (-log10 mol/L)” value amounted to 1.91. The same measure, in the same setting: with `CNC(=O)ON=C(SC)C(=O)N(C)C` the figure was 4.51.

Take `CC(C)(c1cc(Cl)c(O)c(Cl)c1)c1cc(Cl)c(O)c(Cl)c1`: the “96 h LC50 (-log10 mol/L)” value was found to be 5.44.

`O=c1cccc(Cl)[nH]1`: the “96 h LC50 (-log10 mol/L)” value turned out to be 2.78. Consider `CCNc1nc(NC(C)(C)C)nc(OC)n1`, for which the “96 h LC50 (-log10 mol/L)” value is 3.66. In the case of `Cc1c(Cl)cccc1NC=O`, the “96 h LC50 (-log10 mol/L)” value is 3.56.
